What was measured:
corn [1] = assay: Test A postemergence; type: in vivo, Zea mays
How it was run: (§1)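 Visual 0–100 rating (100 = complete control) taken about 10 d post-treatment relative to untreated checks. Preemergence: directed soil spray on sown loam/sand pots. Postemergence: seedlings 2–10 cm, 1–2 leaf. Non-phytotoxic solvent formulation with surfactant.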

pigweed [2] = assay: Test A postemergence; type: in vivo, Amaranthus retroflexus
How it was run: as §1

giant foxtail [3] = assay: Test A postemergence; type: in vivo, Setaria faberii
How it was run: as §1

velvetleaf [4] = assay: Test A preemergence; type: in vivo, Abutilon theophrasti
How it was run: as §1

wheat [5] = assay: Test A postemergence; type: in vivo, Triticum aestivum
How it was run: as §1

giant foxtail [6] = assay: Test A preemergence; type: in vivo, Setaria faberii
How it was run: as §1

wheat [7] = assay: Test A preemergence; type: in vivo, Triticum aestivum
How it was run: as §1

morningglory [8] = assay: Test A postemergence; type: in vivo, Ipomoea spp.
How it was run: as §1

barnyardgrass [9] = assay: Test B flooded paddy test; type: in vivo, Echinochloa crus-galli; conditions: Flood, 250 g ai/ha; 0 to 100 scale where 0 is no effect and 100 is complete control
How it was run: (§2)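 Seedlings are raised to two leaves, flooded to a depth of 3 cm and dosed by adding the compound to the floodwater. Water level is kept constant, and plants are scored visually versus controls 13–15 days later (0 = no effect, 100 = complete control).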

barnyardgrass [10] = assay: Test A postemergence; type: in vivo, Echinochloa crus-galli
How it was run: as §1

rice = assay: Test B flooded paddy test; type: in vivo, Oryza sativa; conditions: Flood, 250 g ai/ha; 0 to 100 scale where 0 is no effect and 100 is complete control
How it was run: as §2

barnyardgrass [11] = assay: Test A preemergence; type: in vivo, Echinochloa crus-galli
How it was run: as §1

velvetleaf [12] = assay: Test A postemergence; type: in vivo, Abutilon theophrasti
How it was run: as §1

large (Lg) crabgrass [13] = assay: Test A postemergence; type: in vivo, Digitaria sanguinalis
How it was run: as §1

morningglory [14] = assay: Test A preemergence; type: in vivo, Ipomoea spp.
How it was run: as §1

corn [15] = assay: Test A preemergence; type: in vivo, Zea mays
How it was run: as §1

large (Lg) crabgrass [16] = assay: Test A preemergence; type: in vivo, Digitaria sanguinalis
How it was run: as §1

sedge, umbrella = assay: Test B flooded paddy test; type: in vivo, Cyperus difformis; conditions: Flood, 250 g ai/ha; 0 to 100 scale where 0 is no effect and 100 is complete control
How it was run: as §2

Heteranthera limosa = assay: Test B flooded paddy test; type: in vivo; conditions: Flood, 250 g ai/ha; 0 to 100 scale where 0 is no effect and 100 is complete control
How it was run: as §2

pigweed [17] = assay: Test A preemergence; type: in vivo, Amaranthus retroflexus
How it was run: as §1

[18] = 125 g ai/ha, 0 to 100 scale where 0 is no effect and 100 is complete control
[19] = 500 g ai/ha, 0 to 100 scale, 0 no effect, 100 complete control
[20] = 500 g ai/ha, 0 to 100 scale, 0 no effect, 100 complete control, approx. 10 days

Compound	Plant response rating, Corn (corn [1]; [18])	Plant response rating, Corn (corn [1]; [19])	Plant response rating, Pigweed (pigweed [2]; [18])	Plant response rating, Pigweed (pigweed [2]; [19])	Plant response rating, Foxtail, Giant (giant foxtail [3]; [18])	Plant response rating, Foxtail, Giant (giant foxtail [3]; [19])	Velvetleaf plant response rating (velvetleaf [4]; [20])	Plant response rating, Wheat (wheat [5]; [18])	Plant response rating, Wheat (wheat [5]; [19])	Foxtail, Giant plant response rating (giant foxtail [6]; [20])	Wheat plant response rating (wheat [7]; [20])	Plant response rating, Morningglory (morningglory [8]; [18])	Plant response rating, Morningglory (morningglory [8]; [19])	Plant response rating, Barnyardgrass (barnyardgrass [9])	Plant response rating, Barnyardgrass (barnyardgrass [10]; [18])	Plant response rating, Barnyardgrass (barnyardgrass [10]; [19])	Plant response rating, Rice (rice)	Barnyardgrass plant response rating (barnyardgrass [11]; [20])	Plant response rating, Velvetleaf (velvetleaf [12]; [19])	Plant response rating, Crabgrass, Large (large (Lg) crabgrass [13]; [18])	further results
FC(F)(F)c1cnc(Oc2ccccc2-n2cc(C(F)(F)F)cn2)nc1 [Compound 17]	0	40	70	100	20	90	90	0	50	90	70	20	50	0	0	20	25	60	100	20	Velvetleaf plant response rating (velvetleaf [4]; [18]): 70; Foxtail, Giant plant response rating (giant foxtail [6]; [18]): 60; Wheat plant response rating (wheat [7]; [18]): 0; Barnyardgrass plant response rating (barnyardgrass [11]; [18]): 50; Plant response rating, Velvetleaf (velvetleaf [12]; [18]): 50; Plant response rating, Crabgrass, Large (large (Lg) crabgrass [13]; [19]): 90; Morningglory plant response rating (morningglory [14]; [18]): 0; Morningglory plant response rating (morningglory [14]; [20]): 20; Corn plant response rating (corn [15]; [18]): 0; Corn plant response rating (corn [15]; [20]): 0; Crabgrass, Large plant response rating (large (Lg) crabgrass [16]; [18]): 40; Crabgrass, Large plant response rating (large (Lg) crabgrass [16]; [20]): 90; Plant response rating, Sedge, Umbrella (sedge, umbrella): 90; Plant response rating, Ducksalad (Heteranthera limosa): 75; Pigweed plant response rating (pigweed [17]; [18]): 100; Pigweed plant response rating (pigweed [17]; [20]): 100
Clc1cnc(Oc2ccccc2-n2cc(Br)c(Br)n2)nc1 [Compound 19]	0	30	30	90	0	30	20	0	0	90	0	0	40	0	0	20	20	20	60	0	Plant response rating, Velvetleaf (velvetleaf [4]; [18]): 0; Plant response rating, Foxtail, Giant (giant foxtail [6]; [18]): 20; Plant response rating, Wheat (wheat [7]; [18]): 0; Plant response rating, Barnyardgrass (barnyardgrass [11]; [18]): 0; Plant response rating, Velvetleaf (velvetleaf [12]; [18]): 30; Plant response rating, Crabgrass, Large (large (Lg) crabgrass [13]; [19]): 20; Plant response rating, Morningglory (morningglory [14]; [18]): 0; Morningglory plant response rating (morningglory [14]; [20]): 0; Plant response rating, Corn (corn [15]; [18]): 0; Corn plant response rating (corn [15]; [20]): 0; Plant response rating, Crabgrass, Large (large (Lg) crabgrass [16]; [18]): 0; Crabgrass, Large plant response rating (large (Lg) crabgrass [16]; [20]): 90; Plant response rating, Sedge, Umbrella (sedge, umbrella): 30; Plant response rating, Ducksalad (Heteranthera limosa): 40; Plant response rating, Pigweed (pigweed [17]; [18]): 0; Pigweed plant response rating (pigweed [17]; [20]): 100
Cc1cnn(-c2ccccc2Oc2ncc(Cl)cn2)c1 [Compound 23]	0	60	90	100	40	90	90	0	20	90	0	50	90	20	0	40	35	50	100	20	Plant response rating, Velvetleaf (velvetleaf [4]; [18]): 90; Plant response rating, Foxtail, Giant (giant foxtail [6]; [18]): 70; Plant response rating, Wheat (wheat [7]; [18]): 0; Plant response rating, Barnyardgrass (barnyardgrass [11]; [18]): 20; Plant response rating, Velvetleaf (velvetleaf [12]; [18]): 80; Plant response rating, Crabgrass, Large (large (Lg) crabgrass [13]; [19]): 60; Plant response rating, Morningglory (morningglory [14]; [18]): 0; Morningglory plant response rating (morningglory [14]; [20]): 0; Plant response rating, Corn (corn [15]; [18]): 0; Corn plant response rating (corn [15]; [20]): 20; Plant response rating, Crabgrass, Large (large (Lg) crabgrass [16]; [18]): 90; Crabgrass, Large plant response rating (large (Lg) crabgrass [16]; [20]): 90; Plant response rating, Sedge, Umbrella (sedge, umbrella): 70; Plant response rating, Ducksalad (Heteranthera limosa): 80; Plant response rating, Pigweed (pigweed [17]; [18]): 100; Pigweed plant response rating (pigweed [17]; [20]): 100
Brc1cnc(Oc2ccccc2-n2cc(Br)c(Br)n2)nc1 [Compound 24]	0	0	0	60	0	0	0	0	0	0	0	0	0	0	0	0	35	0	0	0	Plant response rating, Velvetleaf (velvetleaf [4]; [18]): 0; Plant response rating, Foxtail, Giant (giant foxtail [6]; [18]): 0; Plant response rating, Wheat (wheat [7]; [18]): 0; Plant response rating, Barnyardgrass (barnyardgrass [11]; [18]): 0; Plant response rating, Crabgrass, Large (large (Lg) crabgrass [13]; [19]): 0; Plant response rating, Morningglory (morningglory [14]; [18]): 0; Morningglory plant response rating (morningglory [14]; [20]): 0; Plant response rating, Corn (corn [15]; [18]): 0; Corn plant response rating (corn [15]; [20]): 0; Plant response rating, Crabgrass, Large (large (Lg) crabgrass [16]; [18]): 0; Crabgrass, Large plant response rating (large (Lg) crabgrass [16]; [20]): 0; Plant response rating, Sedge, Umbrella (sedge, umbrella): 60; Plant response rating, Ducksalad (Heteranthera limosa): 0; Plant response rating, Pigweed (pigweed [17]; [18]): 0; Pigweed plant response rating (pigweed [17]; [20]): 0
